Experimental findings from patent publication US8476298B2 (Exelixis, Inc., priority 2003, dated 2013) are described below.

The target in assay [1] is T1, KDR (baculovirus expressed human KDR kinase domain D807-V1356) (Homo sapiens, UniProt P35968).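 Further: Luciferase-coupled chemiluminescent kinase assay, activity read as percent ATP left after 4 h reaction at ambient temperature, ATP near KM, 10-point dose-response in 384-well plates.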
T1 construct: human KDR kinase domain D807-V1356; host or cells: baculovirus expression
T1 sequence (P35968 807-1356): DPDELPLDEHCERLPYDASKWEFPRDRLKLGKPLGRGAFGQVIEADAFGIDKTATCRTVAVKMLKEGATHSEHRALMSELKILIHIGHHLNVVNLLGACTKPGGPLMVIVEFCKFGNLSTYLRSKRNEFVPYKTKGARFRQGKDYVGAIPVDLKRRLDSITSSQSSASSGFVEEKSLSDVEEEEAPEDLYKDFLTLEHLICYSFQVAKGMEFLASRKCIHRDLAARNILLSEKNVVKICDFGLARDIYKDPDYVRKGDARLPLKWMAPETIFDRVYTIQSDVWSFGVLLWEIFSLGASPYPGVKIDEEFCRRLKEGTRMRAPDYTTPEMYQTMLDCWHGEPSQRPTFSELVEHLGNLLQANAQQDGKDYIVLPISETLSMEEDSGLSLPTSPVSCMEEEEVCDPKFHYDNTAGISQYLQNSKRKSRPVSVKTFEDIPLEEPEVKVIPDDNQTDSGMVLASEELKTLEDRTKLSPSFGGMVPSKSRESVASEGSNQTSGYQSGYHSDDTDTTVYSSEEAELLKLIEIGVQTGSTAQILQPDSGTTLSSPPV
As to the kind of experiment: biochemical.
Experimental: Kinase activity and compound inhibition are investigated using one or more of the three assay formats described below. The ATP concentrations for each assay are selected to be close to the Michaelis-Menten constant (KM) for each individual kinase. Dose-response experiments are performed at 10 different inhibitor concentrations in a 384-well plate format.
KDR biochemical activity was assessed using a Luciferase-Coupled Chemiluminescent Kinase assay (LCCA) format. Kinase activity was measured as the percent ATP remaining following the kinase reaction. Remaining ATP was detected by luciferase-luciferin-coupled chemiluminescence. […] The mixture is incubated at ambient temperature for 4 hours after which 20 uL luciferase-luciferin mix is added and the chemiluminescent signal read using a Wallac Victor^2 reader.

In assay [2] the target is T2, Flt-3 (baculovirus expressed human Flt-3 kinase domain R571-S993) (Homo sapiens, UniProt P36888).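 Further: Luciferase-coupled chemiluminescent kinase assay, activity read as percent ATP left after a 3 h reaction at room temperature, ATP near KM, 10-point dose-response.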
T2 construct: human Flt-3 kinase domain R571-S993; host or cells: baculovirus expression
T2 sequence (P36888 571-993): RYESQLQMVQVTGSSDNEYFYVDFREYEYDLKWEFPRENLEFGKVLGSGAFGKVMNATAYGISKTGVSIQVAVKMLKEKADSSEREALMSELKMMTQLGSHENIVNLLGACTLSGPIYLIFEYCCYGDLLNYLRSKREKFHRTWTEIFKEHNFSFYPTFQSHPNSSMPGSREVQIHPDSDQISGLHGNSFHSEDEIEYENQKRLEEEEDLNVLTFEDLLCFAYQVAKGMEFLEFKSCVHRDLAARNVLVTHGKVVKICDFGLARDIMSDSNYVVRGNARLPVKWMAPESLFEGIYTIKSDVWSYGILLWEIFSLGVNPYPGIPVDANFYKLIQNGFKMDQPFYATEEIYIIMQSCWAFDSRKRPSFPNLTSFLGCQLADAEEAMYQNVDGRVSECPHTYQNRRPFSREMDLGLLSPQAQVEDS
As to the kind of experiment: biochemical. Conditions: read-out: flt3 IC50.

Assay [3] addresses T3, c-Met (baculovirus expressed human c-Met kinase domain P948-S1343) (Homo sapiens, UniProt P08581).
T3 construct: human c-Met kinase domain P948-S1343; host or cells: baculovirus expression
Put plainly: c-Met Luciferase-Coupled Chemiluminescent Kinase assay (LCCA).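 Further: kinase activity read as percent ATP left after reaction, by luciferase-luciferin chemiluminescence, with 1 µM ATP and 1 µM poly-EY substrate, 2 h at ambient temperature, 10-point dose-response.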 The assay is classed as biochemical.

The target in assay [4] is T4, Flt-4 (baculovirus expressed human Flt-4 kinase domain D725-R1298) (Homo sapiens, UniProt P35916).
T4 construct: human Flt-4 kinase domain D725-R1298; host or cells: baculovirus expression
T4 sequence (P35916 725-1298 isoform P35916-1): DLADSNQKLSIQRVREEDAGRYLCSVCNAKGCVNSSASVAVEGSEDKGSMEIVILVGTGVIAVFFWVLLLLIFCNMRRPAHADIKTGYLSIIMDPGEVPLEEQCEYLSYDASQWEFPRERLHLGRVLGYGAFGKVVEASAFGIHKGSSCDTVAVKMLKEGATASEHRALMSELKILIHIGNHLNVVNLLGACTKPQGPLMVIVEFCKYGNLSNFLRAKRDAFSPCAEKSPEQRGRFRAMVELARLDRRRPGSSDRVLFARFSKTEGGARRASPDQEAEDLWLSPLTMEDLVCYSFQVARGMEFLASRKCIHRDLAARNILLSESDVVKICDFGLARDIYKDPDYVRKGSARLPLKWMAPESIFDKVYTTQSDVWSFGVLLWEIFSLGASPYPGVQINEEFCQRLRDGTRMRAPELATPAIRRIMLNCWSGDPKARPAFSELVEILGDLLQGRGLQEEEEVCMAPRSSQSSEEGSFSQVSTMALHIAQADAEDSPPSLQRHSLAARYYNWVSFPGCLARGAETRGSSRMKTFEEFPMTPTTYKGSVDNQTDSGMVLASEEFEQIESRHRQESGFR
Put plainly: flt-4 Alphascreen Tyrosine Kinase assay.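 Further: AlphaScreen chemiluminescence read-out of biotinylated poly(Glu,Tyr) 4:1 phosphorylation via streptavidin donor and PY100 anti-phosphotyrosine acceptor beads, ATP near KM, 1 hr kinase reaction, 10-point dose-response.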 The assay is classed as biochemical. Conditions: read-out: flt4 IC50.
Experimental: Kinase activity and compound inhibition are investigated using one or more of the three assay formats described below. The ATP concentrations for each assay are selected to be close to the Michaelis-Menten constant (KM) for each individual kinase. Dose-response experiments are performed at 10 different inhibitor concentrations in a 384-well plate format. […] Typically H is close to unity. c-Met Assay
Biochemical activity for flt-4 was assessed using an Alphascreen Tyrosine Kinase protocol. AlphaScreen™ (Perkin Elmer) technology is a proximity assay employing microparticles. Singlet oxygen derived from a donor bead following laser excitation results in chemiluminescence when in proximity (100 Å) to an acceptor bead due to biomolecular interactions. For the Flt-4 assay, donor beads coated with streptavidin and acceptor beads coated with PY100 anti-phosphotyrosine antibody were used (Perkin Elmer). Biotinylated poly(Glu,Tyr) 4:1 (Perkin Elmer) was used as the substrate. Substrate phosphorylation was measured by addition of donor/acceptor beads by chemiluminescence following donor-acceptor bead complex formation. […] Reaction mixtures were incubated for 1 hr at ambient temperature. […] After 2-16 hr incubation at ambient temperature plates were read using an AlphaQuest reader (Perkin Elmer).

Another assay concerns the target c-Kit kinase (Homo sapiens, UniProt P10721). As to the kind of experiment: c-Kit AlphaScreen kinase assay.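 Further: c-Kit kinase phosphorylating biotinylated poly(Glu,Tyr), ATP near its KM, 1 h reaction at ambient temperature, AlphaScreen chemiluminescence with streptavidin donor and anti-phosphotyrosine acceptor beads, 10-point inhibitor titration.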 In kind it is biochemical.

Sequence of c-Kit kinase (P10721 26-976): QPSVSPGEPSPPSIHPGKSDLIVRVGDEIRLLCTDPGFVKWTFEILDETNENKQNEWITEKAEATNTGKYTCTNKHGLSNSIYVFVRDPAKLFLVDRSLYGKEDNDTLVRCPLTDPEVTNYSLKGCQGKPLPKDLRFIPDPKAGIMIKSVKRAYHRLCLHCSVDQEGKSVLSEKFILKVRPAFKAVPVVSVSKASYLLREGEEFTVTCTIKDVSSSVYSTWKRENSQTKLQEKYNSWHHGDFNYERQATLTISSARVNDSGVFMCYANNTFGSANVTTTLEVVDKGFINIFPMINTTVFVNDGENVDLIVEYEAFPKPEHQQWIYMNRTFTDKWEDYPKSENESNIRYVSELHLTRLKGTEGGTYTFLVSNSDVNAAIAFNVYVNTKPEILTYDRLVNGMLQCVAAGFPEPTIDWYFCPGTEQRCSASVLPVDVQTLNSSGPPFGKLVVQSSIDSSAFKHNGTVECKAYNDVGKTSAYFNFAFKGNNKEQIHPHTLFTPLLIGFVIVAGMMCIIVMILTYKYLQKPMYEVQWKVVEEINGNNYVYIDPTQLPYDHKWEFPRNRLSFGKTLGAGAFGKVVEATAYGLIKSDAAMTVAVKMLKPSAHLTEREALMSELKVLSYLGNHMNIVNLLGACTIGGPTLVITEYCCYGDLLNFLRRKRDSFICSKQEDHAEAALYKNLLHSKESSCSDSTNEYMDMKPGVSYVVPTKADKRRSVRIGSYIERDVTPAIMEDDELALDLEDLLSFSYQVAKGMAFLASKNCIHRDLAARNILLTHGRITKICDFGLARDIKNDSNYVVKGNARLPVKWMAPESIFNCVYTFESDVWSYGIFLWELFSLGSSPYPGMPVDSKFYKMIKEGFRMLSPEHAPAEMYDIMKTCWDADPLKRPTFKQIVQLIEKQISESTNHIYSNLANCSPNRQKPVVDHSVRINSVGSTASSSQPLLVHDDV
T3 sequence (P08581 1011-1343 limits assumed): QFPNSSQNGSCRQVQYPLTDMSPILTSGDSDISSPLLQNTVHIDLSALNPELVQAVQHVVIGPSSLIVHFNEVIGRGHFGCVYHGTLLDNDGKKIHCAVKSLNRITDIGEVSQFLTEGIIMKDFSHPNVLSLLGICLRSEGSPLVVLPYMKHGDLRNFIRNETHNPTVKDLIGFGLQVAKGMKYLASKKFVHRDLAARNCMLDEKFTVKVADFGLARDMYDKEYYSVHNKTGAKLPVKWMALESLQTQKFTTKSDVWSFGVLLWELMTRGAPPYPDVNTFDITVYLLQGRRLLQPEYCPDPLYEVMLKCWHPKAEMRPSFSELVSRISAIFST

Consider `COc1cc2nccc(Oc3nc(C)c(NC(=O)C4(C(=O)Nc5ccc(F)cc5)CC4)cc3Cl)c2cc1OC` [Example 320, N-(6-{[6,7-bis(methyloxy)quinolin-4-yl]oxy}-5-chloro-2-methylpyridin-3-yl)-N′-(4-fluorophenyl)cyclopropane-1,1-dicarboxamide], for which the IC50 in assay [1] was 500 to 5000 nM; in assay [2], 50 to 500 nM; in assay [3], below 50 nM; in assay [4], 500 to 5000 nM; on c-Kit kinase, 500 to 5000 nM.

Turning to `COc1cc2ncnc(Oc3ccc(NC(=O)C4(C(=O)Nc5ccc(F)cc5)CC4)cc3F)c2cc1OCCCN1CCOCC1` [Example 321, N-[3-fluoro-4-({7-(methyloxy)-6-[(3-morpholin-4-ylpropyl)oxy]quinazolin-4-yl}oxy)phenyl]-N′-(4-fluorophenyl)cyclopropane-1,1-dicarboxamide], the half-inhibitory concentration (IC50) in assay [1] was below 50 nM; in assay [2], below 50 nM; in assay [3], below 50 nM; in assay [4], below 50 nM; against c-Kit kinase, 50 to 500 nM.

Consider `COc1cc2nccc(Oc3ccc(NC(=O)C4(C(=O)Nc5ccc(F)cc5)CC4)cc3F)c2cc1OCCCN1CCOCC1` [Example 322, N-[3-fluoro-4-({7-(methyloxy)-6-[(3-morpholin-4-ylpropyl)oxy]quinolin-4-yl}oxy)phenyl]-N′-(4-fluorophenyl)cyclopropane-1,1-dicarboxamide], for which the half-inhibitory concentration (IC50) (in assay [1]; in assay [2]; in assay [3]; in assay [4]; against c-Kit kinase) was below 50 nM throughout.

As for `COc1cc2nccc(Oc3c(F)cc(NC(=O)C4(C(=O)Nc5ccc(F)cc5)CC4)cc3F)c2cc1OC` [Example 323, N-(4-{[6,7-bis(methyloxy)quinolin-4-yl]oxy}-3,5-difluorophenyl)-N′-(4-fluorophenyl)cyclopropane-1,1-dicarboxamide], the IC50 in assay [1] was below 50 nM; in assay [2], below 50 nM; in assay [3], below 50 nM; in assay [4] it was below 50 nM; at c-Kit kinase, 50 to 500 nM.

On to `COc1cc2nccc(Oc3cc(F)c(NC(=O)C4(C(=O)Nc5ccc(F)cc5)CC4)cc3F)c2cc1OC` [Example 324, N-(4-{[6,7-bis(methyloxy)quinolin-4-yl]oxy}-2,5-difluorophenyl)-N′-(4-fluorophenyl)cyclopropane-1,1-dicarboxamide], for which the 50% inhibitory concentration (IC50) (in assay [1]; in assay [2]; in assay [3]; in assay [4]; at c-Kit kinase) was below 50 nM in each case.

For `COc1cc2ncnc(Oc3ccc(NC(=O)C4(C(=O)Nc5ccc(F)cc5)CC4)cc3F)c2cc1OCC1CCN(C)CC1` [Example 325, N-{3-fluoro-4-[(7-(methyloxy)-6-{[(1-methylpiperidin-4-yl)methyl]oxy}quinazolin-4-yl)oxy]phenyl}-N′-(4-fluorophenyl)cyclopropane-1,1-dicarboxamide], the IC50 in assay [1] was below 50 nM; in assay [2], below 50 nM; in assay [3] it was below 50 nM; in assay [4] it was below 50 nM; on c-Kit kinase, 50 to 500 nM.

With `COc1cc2c(Oc3cc(C)c(NC(=O)C4(C(=O)Nc5ccc(F)cc5)CC4)cc3F)ccnc2cc1OCCCN1CCOCC1` [Example 326, N-[5-fluoro-2-methyl-4-({6-(methyloxy)-7-[(3-morpholin-4-ylpropyl)oxy]quinolin-4-yl}oxy)phenyl]-N′-(4-fluorophenyl)cyclopropane-1,1-dicarboxamide], the half-inhibitory concentration (IC50) in assay [1] was below 50 nM; in assay [2] it was 50 to 500 nM; in assay [3], below 50 nM; in assay [4], 50 to 500 nM; against c-Kit kinase, 50 to 500 nM.

For `COc1cc2nccc(Oc3c(F)cc(NC(=O)C4(C(=O)Nc5ccc(F)cc5)CC4)c(F)c3F)c2cc1OC` [Example 327, N-(4-{[6,7-bis(methyloxy)quinolin-4-yl]oxy}-2,3,5-trifluorophenyl)-N′-(4-fluorophenyl)cyclopropane-1,1-dicarboxamide], the IC50 in assay [1] was below 50 nM; in assay [2] it was 50 to 500 nM; in assay [3], below 50 nM; in assay [4] it was 50 to 500 nM; at c-Kit kinase, 50 to 500 nM.

Consider `COc1cc2nccc(Oc3cc(C)c(NC(=O)C4(C(=O)Nc5ccc(F)cc5)CC4)cc3F)c2cc1OC` [Example 328, N-(4-{[6,7-bis(methyloxy)quinolin-4-yl]oxy}-5-fluoro-2-methylphenyl)-N′-(4-fluorophenyl)cyclopropane-1,1-dicarboxamide], for which the IC50 in assay [1] is 50 to 500 nM; in assay [2], 500 to 5000 nM; in assay [3], below 50 nM; in assay [4], 500 to 5000 nM; against c-Kit kinase, 50 to 500 nM.

As to `COc1cc2nccc(Oc3cc(Cl)c(NC(=O)C4(C(=O)Nc5ccc(F)cc5)CC4)cc3C)c2cc1OC` [Example 329, N-(4-{[6,7-bis(methyloxy)quinolin-4-yl]oxy}-2-chloro-5-methylphenyl)-N′-(4-fluorophenyl)cyclopropane-1,1-dicarboxamide], the half-maximal inhibitory concentration (IC50) in assay [1] is 50 to 500 nM; in assay [2], 500 to 5000 nM; in assay [3], below 50 nM; in assay [4], 50 to 500 nM; against c-Kit kinase, 50 to 500 nM.

Take `COc1cc2nccc(Oc3ccc(NC(=O)C4(C(=O)Nc5ccc(F)cc5)CC4)cc3F)c2cc1O` [Example 330, N-(3-fluoro-4-{[6-hydroxy-7-(methyloxy)quinolin-4-yl]oxy}phenyl)-N′-(4-fluorophenyl)cyclopropane-1,1-dicarboxamide]: the IC50 (in assay [1]; in assay [2]; in assay [3]; in assay [4]; on c-Kit kinase) was below 50 nM in each case.

Consider `COc1cc2c(Oc3ccc(NC(=O)C4(C(=O)Nc5ccc(F)cc5)CC4)c(C)c3)ccnc2cc1OCCCN1CCOCC1` [Example 331, N-(4-fluorophenyl)-N′-[2-methyl-4-({6-(methyloxy)-7-[(3-morpholin-4-ylpropyl)oxy]quinolin-4-yl}oxy)phenyl]cyclopropane-1,1-dicarboxamide], for which the IC50 in assay [1] is below 50 nM; in assay [2], 50 to 500 nM; in assay [3] it was below 50 nM; in assay [4], below 50 nM; on c-Kit kinase, below 50 nM.

For the molecule `COc1cc2c(Oc3ccc(NC(=O)C4(C(=O)Nc5ccc(F)cc5)CC4)cc3F)ccnc2cc1OCCCN1CCNCC1` [Example 332, N-[3-fluoro-4-({6-(methyloxy)-7-[(3-piperazin-1-ylpropyl)oxy]quinolin-4-yl}oxy)phenyl]-N′-(4-fluorophenyl)cyclopropane-1,1-dicarboxamide], the IC50 (in assay [1]; in assay [2]; in assay [3]; in assay [4]; against c-Kit kinase) was below 50 nM each time.

With `COc1cc2c(Oc3ccc(NC(=O)C4(C(=O)Nc5ccc(F)cc5)CC4)cc3F)ccnc2cc1OCCCN1CCN(C)CC1` [Example 333, N-{3-fluoro-4-[(6-(methyloxy)-7-{[3-(4-methylpiperazin-1-yl)propyl]oxy}quinolin-4-yl)oxy]phenyl}-N′-(4-fluorophenyl)cyclopropane-1,1-dicarboxamide], the IC50 (in assay [1]; in assay [2]; in assay [3]; in assay [4]; at c-Kit kinase) was below 50 nM in each case.
